How the values were obtained:
A549 (NSCLC) = experiment: Anti-proliferative activity (Cell-Titre luminescence) against A549 non-small cell lung cancer cells; type: cell-based; settings: Homo sapiens, 72 h exposure, Cell-Titre luminescent reagent
Method: (§1) The ability of compounds of the invention to inhibit the proliferation of cancer cells representative of non-small cell lung cancer and ovarian cancer (Table 2), pancreatic cancer, colorectal cancer and prostate cancer (Table 3) was assessed. Briefly, a predetermined number of cells as calculated from cell growth assays for each of the cell lines employed were seeded into their respective culture medium (using ATCC culture parameters—http://www.atcc.org) and cultured for 24 h at 37° C. and 5% CO2 in 96-well culture plates. Once attached, each cell line was then exposed to various concentrations of each respective analogue (30, 10, 3, 1, 0.3 and 0.1 μM), cultured for a further 72 h and exposed to Cell-Titre luminescent reagent (100 μL/well) for a further 30 min. Luminescence was captured using an EnVision multilabel reader and the data for each analogue concentration compared against no treatment control. Cell viability was normalised to control (vehicle alone) and dose response curves, and half maximal effective concentration (EC50) values were determined using Graph Pad Prism 6 (nonlinear regression sigmoidal dose-response variable slope).

A2780 (ovarian) = experiment: Anti-proliferative activity (Cell-Titre luminescence) against A2780 ovarian cancer cells; type: cell-based; settings: Homo sapiens, 72 h exposure, Cell-Titre luminescent reagent
Method: as §1

Row | Compound | IC50 (A549 (NSCLC); A549, 72 h) [µM] | IC50 (A2780 (ovarian); A2780, 72 h) [µM] | IC50 (A549 (NSCLC); A549) [µM] | IC50 (A2780 (ovarian); A2780) [µM]
1 | CC(C)C(CNc1nc(-c2ccsc2)nc2ccccc12)N1CCN(C)CC1 (centres unmarked) [Compound 1, N-(3-methyl-2-(4-methylpiperazin-1-yl)butyl)-2-(thiophen-3-yl)quinazolin-4-amine] | 8.06 | 8.59 |  | 
2 | OCCNc1nc(NCc2cccc(C(F)(F)F)c2)nc2ccccc12 [Compound 2, 2-((2-((3-(trifluoromethyl)benzyl)amino)quinazolin-4-yl)amino)ethan-1-ol] |  |  | 11.1 | 10.7
3 | CC(C)C(CNc1nc(-c2cccs2)nc2ccccc12)N1CCN(C)CC1 (centres unmarked) [Compound 3, N-(3-methyl-2-(4-methylpiperazin-1-yl)butyl)-2-(thiophen-2-yl)quinazolin-4-amine] | 5.92 | 8.89 |  | 
4 | CC(C)C(CNc1nc(-c2ccc[nH]2)nc2ccccc12)N1CCN(C)CC1 (centres unmarked) [Compound 4, N-(3-methyl-2-(4-methylpiperazin-1-yl)butyl)-2-(1H-pyrrol-2-yl)quinazolin-4-amine] | 8.56 | 8.3 |  | 
5 | CC(C)C(CNc1nc(-c2ccco2)nc2ccccc12)N1CCN(C)CC1 (centres unmarked) [Compound 6, 2-(furan-2-yl)-N-(3-methyl-2-(4-methylpiperazin-1-yl)butyl)quinazolin-4-amine] | > 30 | > 30 |  | 
6 | CC(C)C(CNc1nc(-c2ccoc2)nc2ccccc12)N1CCN(C)CC1 (centres unmarked) [Compound 7, 2-(furan-3-yl)-N-(3-methyl-2-(4-methylpiperazin-1-yl)butyl)quinazolin-4-amine] | 10.2 | 10.8 |  | 
7 | CC(C)C(CNc1nc(N2CCCC2)nc2ccccc12)N1CCN(C)CC1 (centres unmarked) [Compound 8, N-(3-methyl-2-(4-methylpiperazin-1-yl)butyl)-2-(pyrrolidin-1-yl)quinazolin-4-amine] | > 30 | > 30 |  | 
8 | CC(C)C(CNc1nc(-n2cccc2)nc2ccccc12)N1CCN(C)CC1 (centres unmarked) [Compound 9, N-(3-methyl-2-(4-methylpiperazin-1-yl)butyl)-2-(1H-pyrrol-1-yl)quinazolin-4-amine] | 4.94 | 5.79 |  | 
9 | CN1CCN(CCNc2nc(-c3cccs3)nc3ccccc23)CC1 [Compound 10, N-(2-(4-methylpiperazin-1-yl)ethyl)-2-(thiophen-2-yl)quinazolin-4-amine] | > 30 | > 30 |  | 
10 | CN1CCN(CCNc2nc(-c3ccc[nH]3)nc3ccccc23)CC1 [Compound 12, N-(2-(4-methylpiperazin-1-yl)ethyl)-2-(1H-pyrrol-2-yl)quinazolin-4-amine] | 8.24 | 10.2 |  | 
11 | CN1CCN(CCNc2nc(-c3ccco3)nc3ccccc23)CC1 [Compound 14, 2-(furan-2-yl)-N-(2-(4-methylpiperazin-1-yl)ethyl)quinazolin-4-amine] | > 30 | > 30 |  | 
12 | CN1CCN(CCNc2nc(-c3ccoc3)nc3ccccc23)CC1 [Compound 15, 2-(furan-3-yl)-N-(2-(4-methylpiperazin-1-yl)ethyl)quinazolin-4-amine] | > 30 | > 30 |  | 
13 | CN1CCN(CCNc2nc(N3CCCC3)nc3ccccc23)CC1 [Compound 16, N-(2-(4-methylpiperazin-1-yl)ethyl)-2-(pyrrolidin-1-yl)quinazolin-4-amine] | > 30 | 22.5 |  | 
14 | CN1CCN(CCNc2nc(-n3cccc3)nc3ccccc23)CC1 [Compound 17, N-(2-(4-methylpiperazin-1-yl)ethyl)-2-(1H-pyrrol-1-yl)quinazolin-4-amine] | > 30 | 22.7 |  | 
15 | OCCNc1nc(-c2cccs2)nc2ccccc12 [Compound 18, 2-((2-(thiophen-2-yl)quinazolin-4-yl)amino)ethan-1-ol] | > 30 | > 30 |  | 
16 | OCCNc1nc(-c2ccsc2)nc2ccccc12 [Compound 19, 2-((2-(thiophen-3-yl)quinazolin-4-yl)amino)ethan-1-ol] | > 30 | > 30 |  | 
17 | OCCNc1nc(-c2ccc[nH]2)nc2ccccc12 [Compound 20, 2-((2-(1H-pyrrol-2-yl)quinazolin-4-yl)amino)ethan-1-ol] | > 30 | > 30 |  | 
18 | OCCNc1nc(-c2cc[nH]c2)nc2ccccc12 [Compound 21, 2-((2-(1H-pyrrol-3-yl)quinazolin-4-yl)amino)ethan-1-ol] | > 30 | > 30 |  | 
19 | OCCNc1nc(-c2ccco2)nc2ccccc12 [Compound 22, 2-((2-(furan-2-yl)quinazolin-4-yl)amino)ethan-1-ol] | > 30 | > 30 |  | 
20 | OCCNc1nc(-c2ccoc2)nc2ccccc12 [Compound 23, 2-((2-(furan-3-yl)quinazolin-4-yl)amino)ethan-1-ol] | > 30 | > 30 |  | 

More lines, main results first:

Row | IC50 (A549 (NSCLC); A549, 72 h) [µM] | IC50 (A2780 (ovarian); A2780, 72 h) [µM] | Compound | IC50 (A549 (NSCLC); A549) [µM] | IC50 (A2780 (ovarian); A2780) [µM]
21 | > 30 | > 30 | OCCNc1nc(N2CCCC2)nc2ccccc12 [Compound 24, 2-((2-(pyrrolidin-1-yl)quinazolin-4-yl)amino)ethan-1-ol] |  | 
22 | > 30 | > 30 | OCCNc1nc(-n2cccc2)nc2ccccc12 [Compound 25, 2-((2-(1H-pyrrol-1-yl)quinazolin-4-yl)amino)ethan-1-ol] |  | 
23 | 22 | 16.9 | OCCNc1nc(Nc2ccccc2)nc2ccccc12 [Compound 26, 2-((2-(phenylamino)quinazolin-4-yl)amino)ethan-1-ol] |  | 
24 | 2.84 | 6.74 | OCCNc1nc(Nc2cccc(C(F)(F)F)c2)nc2ccccc12 [Compound 27, 2-((2-((3-(trifluoromethyl)phenyl)amino)quinazolin-4-yl)amino)ethan-1-ol] |  | 
25 | > 30 | > 30 | OCCNc1nc(Nc2ccc(C(F)(F)F)cc2)nc2ccccc12 [Compound 28, 2-((2-((4-(trifluoromethyl)phenyl)amino)quinazolin-4-yl)amino)ethan-1-ol] |  | 
26 | 9.21 | 6.91 | COc1cccc(Nc2nc(NCCO)c3ccccc3n2)c1 [Compound 29, 2-((2-((3-methoxyphenyl)amino)quinazolin-4-yl)amino)ethan-1-ol] |  | 
27 | > 30 | > 30 | COc1ccc(Nc2nc(NCCO)c3ccccc3n2)cc1 [Compound 30, 2-((2-((4-methoxyphenyl)amino)quinazolin-4-yl)amino)ethan-1-ol] |  | 
28 | 21 | 8.95 | COc1cccc(CNc2nc(NCCO)c3ccccc3n2)c1 [Compound 33, 2-((2-((3-methoxybenzyl)amino)quinazolin-4-yl)amino)ethan-1-ol] |  | 
29 | 14.1 | 12.8 | COc1ccc(CNc2nc(NCCO)c3ccccc3n2)cc1 [Compound 34, 2-((2-((4-methoxybenzyl)amino)quinazolin-4-yl)amino)ethan-1-ol] |  | 
30 | > 30 | 7.47 | OCCNc1nc(NCCc2ccccc2)nc2ccccc12 [Compound 35, 2-((2-(phenethylamino)quinazolin-4-yl)amino)ethan-1-ol] |  | 
31 | 2.67 | 2.32 | OCCNc1nc(NCCc2cccc(C(F)(F)F)c2)nc2ccccc12 [Compound 36, 2-((2-((3-(trifluoromethyl)phenethyl)amino)quinazolin-4-yl)amino)ethan-1-ol] |  | 
32 | 3.82 | 3.82 | OCCNc1nc(NCCc2ccc(C(F)(F)F)cc2)nc2ccccc12 [Compound 37, 2-((2-((4-(trifluoromethyl)phenethyl)amino)quinazolin-4-yl)amino)ethan-1-ol] |  | 
33 | 26.8 | 18.8 | COc1cccc(CCNc2nc(NCCO)c3ccccc3n2)c1 [Compound 38, 2-((2-((3-methoxyphenethyl)amino)quinazolin-4-yl)amino)ethan-1-ol] |  | 
34 | > 30 | 11.9 | COc1ccc(CCNc2nc(NCCO)c3ccccc3n2)cc1 [Compound 39, 2-((2-((4-methoxyphenethyl)amino)quinazolin-4-yl)amino)ethan-1-ol] |  | 
35 | 6.27 | 4.34 | CN1CCN(CCNc2nc(Nc3ccccc3)nc3ccccc23)CC1 [Compound 40, N^4-(2-(4-methylpiperazin-1-yl)ethyl)-N^2-phenylquinazoline-2,4-diamine] |  | 
36 | 4.94 | 1.69 | CN1CCN(CCNc2nc(Nc3ccc(C(F)(F)F)cc3)nc3ccccc23)CC1 [Compound 42, N^4-(2-(4-methylpiperazin-1-yl)ethyl)-N^2-(4-(trifluoromethyl)phenyl)quinazoline-2,4-diamine] |  | 
37 | 5.8 | 2.49 | COc1ccc(Nc2nc(NCCN3CCN(C)CC3)c3ccccc3n2)cc1 [Compound 44, N^2-(4-methoxyphenyl)-N^4-(2-(4-methylpiperazin-1-yl)ethyl)quinazoline-2,4-diamine] |  | 
38 | 18.4 | 8.55 | CN1CCN(CCNc2nc(NCc3ccccc3)nc3ccccc23)CC1 [Compound 45, N^2-benzyl-N^4-(2-(4-methylpiperazin-1-yl)ethyl)quinazoline-2,4-diamine] |  | 
39 | 3.04 | 2.34 | CN1CCN(CCNc2nc(NCc3cccc(C(F)(F)F)c3)nc3ccccc23)CC1 [Compound 46, N^4-(2-(4-methylpiperazin-1-yl)ethyl)-N^2-(3-(trifluoromethyl)benzyl)quinazoline-2,4-diamine] |  | 
40 | 3.28 | 6.13 | CN1CCN(CCNc2nc(NCc3ccc(C(F)(F)F)cc3)nc3ccccc23)CC1 [Compound 47, N^4-(2-(4-methylpiperazin-1-yl)ethyl)-N^2-(4-(trifluoromethyl)benzyl)quinazoline-2,4-diamine] |  | 

Source: patent US20230339866A1, “Quinazoline compounds and the use thereof in the treatment of cancer” (TROBIO THERAPEUTICS PTY LTD, priority 2020, published 2023)
